In BindingDB's records for doi:10.1007/s002100000299 (University of Oslo, 2001):
“And” between values parts separate entries of the source, which are not always exact repeats. Equal entries are not always repeated.

Each molecule was assayed against 5-hydroxytryptamine receptor 4 (Homo sapiens, UniProt Q13639).
Sequence of 5-hydroxytryptamine receptor 4 (Q13639 whole entry): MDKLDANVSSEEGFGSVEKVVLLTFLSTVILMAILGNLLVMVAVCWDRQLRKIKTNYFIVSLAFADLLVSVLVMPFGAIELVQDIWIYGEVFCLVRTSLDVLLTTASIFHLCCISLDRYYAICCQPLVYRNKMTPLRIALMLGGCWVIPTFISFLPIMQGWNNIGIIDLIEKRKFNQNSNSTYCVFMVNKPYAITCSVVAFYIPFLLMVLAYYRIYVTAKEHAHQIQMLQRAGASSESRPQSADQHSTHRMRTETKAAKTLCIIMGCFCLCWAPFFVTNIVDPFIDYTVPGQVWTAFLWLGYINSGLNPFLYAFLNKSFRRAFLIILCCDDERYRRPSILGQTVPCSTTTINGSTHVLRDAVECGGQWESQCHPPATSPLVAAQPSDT

Structure (SMILES)	Ki
O=C(OCCN1CCCCC1)c1c[nH]c2ccccc12 [CAS_135938-17-9]	2 nM and 1.3 nM
NCCc1c[nH]c2ccc(C(N)=O)cc12 [[3H]-5-carboxamidotryptamine]	> 10000 nM
CN1C2CCC1CC(OC(=O)c1c[nH]c3ccccc13)C2 (stereo not given)	158 nM and 79.4 nM
Cn1cc(C(=O)OCC2CCN(CCNS(C)(=O)=O)CC2)c2ccccc21 [GR 113808]	0.079 nM and 0.05 nM
COc1ccc2[nH]cc(CCN)c2c1 [tryptamine, 5-Methoxy]	316 nM and 251 nM
